Counter-ions that a name gives are not always drawn. Like-named read-outs stand apart in the source and are kept apart here.
Tests used:
[1] = biological target: T1, SARS-CoV-2 PLpro (nsp3 1564–1878) (Severe acute respiratory syndrome coronavirus 2, UniProt P0DTD1); assay: biochemical; design: FRET-quenched peptide (Pro3) cleavage by PLpro, 10 min pre-incubation, slope over 20 min, normalised to no-compound control; settings: read-out: % of control remaining
[2] = biological target: T1, SARS-CoV-2 PLpro (nsp3 1564–1878); assay: biochemical; design: FRET-quenched peptide (Pro3) cleavage by PLpro, 10 min pre-incubation, slope over 20 min, normalised to no-compound control; settings: read-out: % of control remaining; remark: listed apart in the source

**Q.** Which remaining activity at 3.75 µM ([1]; Well no.=1630, high concentration screen) does the source give for `Cc1c(C)c2c(c(C)c1O)CCC(C)(COc1ccc(CC3SC(=O)NC3=O)cc1)O2` (stereo not drawn) [Troglitazone] here?
**A.** 99.4%

**Q.** What about the remaining activity at 1.25 µM ([2]; Well no.=1630, low concentration screen) of the same molecule?
**A.** 101%

**Q.** How did the remaining activity at 3.75 µM ([1]; Well no.=1570, high concentration screen) turn out when `CO[C@H]1C[C@H](O[C@H]2[C@H](C)[C@@H](O[C@@H]3O[C@H](C)C[C@H](N(C)C)[C@H]3OC(C)=O)[C@@H](C)C[C@@]3(CO3)C(=O)[C@H](C)[C@@H](OC(C)=O)[C@@H](C)[C@@H](C)OC(=O)[C@@H]2C)O[C@@H](C)[C@@H]1OC(C)=O` [Troleandomycin] was run?
**A.** 99.5%

**Q.** What about the remaining activity at 3.75 µM ([1]; Well no.=3188, high concentration screen) of the same molecule?
**A.** 103%

**Q.** And the remaining activity at 1.25 µM ([2]; Well no.=1570, low concentration screen)?
**A.** 96.7%

**Q.** What about the remaining activity at 1.25 µM ([2]; Well no.=3188, low concentration screen) of the same molecule?
**A.** 106%

**Q.** For `Cc1c(C)c2c(c(C)c1O)CCC(C)(C(=O)O)O2` (stereo not drawn) [Trolox], which remaining activity at 3.75 µM ([1]; Well no.=3899, high concentration screen) is on record?
**A.** 99.4%

**Q.** What about the remaining activity at 1.25 µM ([2]; Well no.=3899, low concentration screen) of the same molecule?
**A.** 101%

**Q.** Which results are given for `CN1[C@@H]2CC[C@H]1CC(O)C2` (stereo partly drawn) [Tropine]?
**A.** remaining activity at 3.75 µM ([1]; Well no.=3469, high concentration screen): 106%; remaining activity at 1.25 µM ([2]; Well no.=3469, low concentration screen): 105%

**Q.** `CN1[C@@H]2CC[C@H]1C[C@@H](OC(=O)c1c[nH]c3ccccc13)C2` [Tropisetron (Hydrochloride)] was tested. Which remaining activity at 3.75 µM ([1]; Well no.=7467, high concentration screen) did it give?
**A.** 102%

**Q.** And the remaining activity at 1.25 µM ([2]; Well no.=7467, low concentration screen)?
**A.** 100%

**Q.** Which remaining activity at 3.75 µM ([1]; Well no.=2008, high concentration screen) does the source give for `CN1[C@@H]2CC[C@H]1C[C@@H](OC(=O)c1c[nH]c3ccccc13)C2` [Tropisetron] here?
**A.** 101%

**Q.** And the remaining activity at 1.25 µM ([2]; Well no.=2008, low concentration screen)?
**A.** 99.1%

**Q.** And the remaining activity at 1.25 µM ([2]; Well no.=6607, low concentration screen)?
**A.** 103%

**Q.** What does the source list for `O=C(O[C@H]1C[C@H]2CC[C@@H](C1)[N+]21CCCC1)C(O)(c1ccccc1)c1ccccc1` [Trospium (chloride)]?
**A.** remaining activity at 3.75 µM ([1]; Well no.=6571, high concentration screen): 102%; remaining activity at 1.25 µM ([2]; Well no.=6571, low concentration screen): 103%

**Q.** How did the remaining activity at 3.75 µM ([1]; Well no.=4916, high concentration screen) turn out when `O=C(O[C@H]1C[C@H]2CC[C@@H](C1)[N+]21CCCC1)C(O)(c1ccccc1)c1ccccc1` [Trospium chloride (Sanctura)] was run?
**A.** 90.4%

**Q.** What about the remaining activity at 1.25 µM ([2]; Well no.=4916, low concentration screen) of the same molecule?
**A.** 97.3%

**Q.** What does the source list for `C[C@@H]1O[C@@H](OC[C@H]2O[C@@H](Oc3c(-c4ccc(OCCO)c(OCCO)c4)oc4cc(OCCO)cc(O)c4c3=O)[C@H](O)[C@@H](O)[C@@H]2O)[C@H](O)[C@H](O)[C@H]1O` [Troxerutin]?
**A.** remaining activity at 3.75 µM ([1]; Well no.=4866, high concentration screen): 93.8%; remaining activity at 1.25 µM ([2]; Well no.=4866, low concentration screen): 95.4%

**Q.** Which results are given for `NCCc1c[nH]c2ccccc12` [Tryptamine hydrochloride]?
**A.** remaining activity at 3.75 µM ([1]; Well no.=291, high concentration screen): 96.5%; remaining activity at 1.25 µM ([2]; Well no.=291, low concentration screen): 97.7%

**Q.** Which remaining activity at 3.75 µM ([1]; Well no.=7365, high concentration screen) does the source give for `NCCc1c[nH]c2ccccc12` [Tryptamine] here?
**A.** 99.2%

**Q.** And the remaining activity at 1.25 µM ([2]; Well no.=7365, low concentration screen)?
**A.** 97.9%

**Q.** How did the remaining activity at 3.75 µM ([1]; Well no.=3376, high concentration screen) turn out when `O=C1c2ccccc2-n2c1nc1ccccc1c2=O` [Tryptanthrin] was run?
**A.** 100%

**Q.** What about the remaining activity at 1.25 µM ([2]; Well no.=3376, low concentration screen) of the same molecule?
**A.** 96.9%

**Q.** For `COc1cc(C(=O)O[C@H]2C/C(C)=C/CC/C(C)=C/[C@H](O)[C@@H]2C(C)C)ccc1O` [Tschimganidin], which remaining activity at 3.75 µM ([1]; Well no.=3207, high concentration screen) is on record?
**A.** 100%

**Q.** What about the remaining activity at 1.25 µM ([2]; Well no.=3207, low concentration screen) of the same molecule?
**A.** 89.2%

**Q.** For `COc1cc(C(=O)O[C@H]2C[C@@H]3CC[C@]2(C)C3(C)C)ccc1O` [Tschimganine], which remaining activity at 3.75 µM ([1]; Well no.=3209, high concentration screen) is on record?
**A.** 104%

**Q.** What about the remaining activity at 1.25 µM ([2]; Well no.=3209, low concentration screen) of the same molecule?
**A.** 104%

**Q.** Which results are given for `CN1CCc2c(c3ccccc3n2Cc2ccc(C(=O)NO)cc2)C1` [Tubastatin A HCl]?
**A.** remaining activity at 3.75 µM ([1]; Well no.=4962, high concentration screen): 88.7%; remaining activity at 1.25 µM ([2]; Well no.=4962, low concentration screen): 90.5%

**Q.** What does the source list for `Nc1ncnc2c1ccn2[C@@H]1O[C@H](CO)[C@@H](O)[C@H]1O` [Tubercidin]?
**A.** remaining activity at 3.75 µM ([1]; Well no.=8060, high concentration screen): 95.7%; remaining activity at 1.25 µM ([2]; Well no.=8060, low concentration screen): 96.1%

**Q.** What does the source list for `CCOc1ccc(-c2cn(C)nc2-c2cc(OC)c(OC)c(OC)c2)cc1` [Tubulin inhibitor 1]?
**A.** remaining activity at 3.75 µM ([1]; Well no.=7162, high concentration screen): 97.8%; remaining activity at 1.25 µM ([2]; Well no.=7162, low concentration screen): 104%

**Q.** For `CC(C)(C)NCC(O)c1ccccc1Cl` (stereo not drawn) [Tulobuterol hydrochloride], which remaining activity at 3.75 µM ([1]; Well no.=1291, high concentration screen) is on record?
**A.** 106%

**Q.** And the remaining activity at 1.25 µM ([2]; Well no.=1291, low concentration screen)?
**A.** 105%

**Q.** Which remaining activity at 3.75 µM ([1]; Well no.=2027, high concentration screen) does the source give for `CC(C)(C)NCC(O)c1ccccc1Cl` (stereo not drawn) [Tulobuterol] here?
**A.** 100%

**Q.** What about the remaining activity at 1.25 µM ([2]; Well no.=2027, low concentration screen) of the same molecule?
**A.** 98.5%

**Q.** `CC(=O)N[C@H]1[C@@H](O[C@@H]2O[C@H](C[C@@H](O)[C@@H]3O[C@H](n4ccc(=O)[nH]c4=O)[C@@H](O)[C@H]3O)[C@H](O)[C@H](O)[C@H]2NC(=O)/C=C/CCCCCCCCCCC(C)C)O[C@H](CO)[C@@H](O)[C@@H]1O` [Tunicamycin B] was tested. Which remaining activity at 3.75 µM ([1]; Well no.=3190, high concentration screen) did it give?
**A.** 103%

**Q.** And the remaining activity at 1.25 µM ([2]; Well no.=3190, low concentration screen)?
**A.** 104%

**Q.** With `O=C(CO)[C@@H](O[C@H]1O[C@H](CO)[C@@H](O)[C@H](O)[C@H]1O)[C@H](O)[C@H](O)CO` [Turanose] as the molecule, how does the remaining activity at 3.75 µM ([1]; Well no.=6971, high concentration screen) read?
**A.** 98.6%

**Q.** What about the remaining activity at 1.25 µM ([2]; Well no.=6971, low concentration screen) of the same molecule?
**A.** 92.9%

**Q.** With `CC[C@H]1OC(=O)C[C@@H](O)[C@H](C)[C@@H](O[C@@H]2O[C@H](C)[C@@H](O[C@H]3C[C@@](C)(O)[C@@H](O)[C@H](C)O3)[C@H](N(C)C)[C@H]2O)[C@@H](CC=O)C[C@@H](C)C(=O)/C=C/C(C)=C/[C@@H]1CO[C@@H]1O[C@H](C)[C@@H](O)[C@@H](OC)[C@H]1OC` [Tylosin tartrate] as the molecule, how does the remaining activity at 3.75 µM ([1]; Well no.=4985, high concentration screen) read?
**A.** 93%

**Q.** And the remaining activity at 1.25 µM ([2]; Well no.=4985, low concentration screen)?
**A.** 95.4%

**Q.** Which results are given for `CC[C@H]1OC(=O)C[C@@H](O)[C@H](C)[C@@H](O[C@@H]2O[C@H](C)[C@@H](O[C@H]3C[C@@](C)(O)[C@@H](O)[C@H](C)O3)[C@H](N(C)C)[C@H]2O)[C@@H](CC=O)C[C@@H](C)C(=O)/C=C/C(C)=C/[C@@H]1CO[C@@H]1O[C@H](C)[C@@H](O)[C@@H](OC)[C@H]1OC` [Tylosin]?
**A.** remaining activity at 3.75 µM ([1]; Well no.=2010, high concentration screen): 97.8%; remaining activity at 1.25 µM ([2]; Well no.=2010, low concentration screen): 96.7%

**Q.** Which remaining activity at 3.75 µM [1] does the source give for `CSCC[C@H](NC(=O)[C@H](Cc1ccccc1)NC(=O)CNC(=O)CNC(=O)[C@@H](N)Cc1ccc(O)cc1)C(=O)O` [Tyr-Gly-Gly-Phe-Met-OH] here?
**A.** 101%

**Q.** And the remaining activity at 1.25 µM [2]?
**A.** 98.2%

**Q.** What does the source list for `NCCc1ccc(O)cc1` [Tyramine]?
**A.** remaining activity at 3.75 µM ([1]; Well no.=6541, high concentration screen): 101%; remaining activity at 1.25 µM ([2]; Well no.=6541, low concentration screen): 107%

**Q.** Which remaining activity at 3.75 µM ([1]; Well no.=1341, high concentration screen) does the source give for `N#CC(C#N)=Cc1ccc(O)c(O)c1` [Tyrphostin 23] here?
**A.** 93.9%

**Q.** What about the remaining activity at 1.25 µM ([2]; Well no.=1341, low concentration screen) of the same molecule?
**A.** 94.2%

**Q.** Which remaining activity at 3.75 µM ([1]; Well no.=1485, high concentration screen) does the source give for `N#CC(C#N)=Cc1cc(O)c(O)c(O)c1` [Tyrphostin 25] here?
**A.** 86.6%

**Q.** What about the remaining activity at 1.25 µM ([2]; Well no.=1485, low concentration screen) of the same molecule?
**A.** 90.9%

**Q.** With `N#C/C(=C\c1ccc(O)c(O)c1)C(N)=S` [Tyrphostin 47] as the molecule, how does the remaining activity at 3.75 µM ([1]; Well no.=1276, high concentration screen) read?
**A.** 99.6%

**Q.** And the remaining activity at 1.25 µM ([2]; Well no.=1276, low concentration screen)?
**A.** 97.8%

**Q.** What does the source list for `N#CC(C#N)=C(N)/C(C#N)=C/c1cc(O)c(O)c(O)c1` [Tyrphostin 51]?
**A.** remaining activity at 3.75 µM ([1]; Well no.=1324, high concentration screen): 95.8%; remaining activity at 1.25 µM ([2]; Well no.=1324, low concentration screen): 96.8%

**Q.** Which remaining activity at 3.75 µM ([1]; Well no.=1426, high concentration screen) does the source give for `CC(C)(C)c1cc(C=C(C#N)C#N)cc(C(C)(C)C)c1O` [Tyrphostin A9] here?
**A.** 101%

**Q.** What about the remaining activity at 1.25 µM ([2]; Well no.=1426, low concentration screen) of the same molecule?
**A.** 99.8%

**Q.** With `COc1cc(C=C(C#N)C#N)cc(O)c1O` [Tyrphostin AG 34] as the molecule, how does the remaining activity at 3.75 µM ([1]; Well no.=1387, high concentration screen) read?
**A.** 101%

**Q.** What about the remaining activity at 1.25 µM ([2]; Well no.=1387, low concentration screen) of the same molecule?
**A.** 102%

**Q.** How did the remaining activity at 3.75 µM ([1]; Well no.=1245, high concentration screen) turn out when `N#CC(C#N)=C(N)/C(C#N)=C/c1ccc(O)cc1` [Tyrphostin AG 112] was run?
**A.** 95.9%

**Q.** And the remaining activity at 1.25 µM ([2]; Well no.=1245, low concentration screen)?
**A.** 95.9%

**Q.** With `N#CC(C#N)=Cc1ccc([N+](=O)[O-])c(O)c1` [Tyrphostin AG 126] as the molecule, how does the remaining activity at 3.75 µM ([1]; Well no.=1518, high concentration screen) read?
**A.** 95.4%

**Q.** What about the remaining activity at 1.25 µM ([2]; Well no.=1518, low concentration screen) of the same molecule?
**A.** 100%
